In patent US20230265151A1, “GIP/GLP1 CO-AGONIST COMPOUNDS” (priority 2020, published 2023):
Like-named read-outs stand apart in the source and are kept apart here.

Legend:
Format in all cases: cell-based
hGLP-1R = hGLP-1R (Homo sapiens, UniProt P43220); assay: Functional cAMP formation (HTRF) in HEK-293 clonal cells expressing hGLP-1R, 0.1% bovine casein, without or with 1.0% human serum albumin; set-up: expressed in transfected cells; conditions: for EC50: geometric mean
Method in brief: (§1)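 Readings of the HTRF 665/620 nm ratio, which falls as cAMP rises, were converted to nM cAMP using a standard curve after 30 min peptide exposure at 37° C.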

hGIPR = target: T1, hGIPR (Homo sapiens, UniProt P48546); assay: Functional cAMP formation (HTRF) in HEK-293 clonal cells expressing hGIPR, 0.1% bovine casein, without or with 1.0% human serum albumin; conditions: for EC50: cAMP
T1 construct: expressed in transfected cells
T1 sequence (P48546 22-466): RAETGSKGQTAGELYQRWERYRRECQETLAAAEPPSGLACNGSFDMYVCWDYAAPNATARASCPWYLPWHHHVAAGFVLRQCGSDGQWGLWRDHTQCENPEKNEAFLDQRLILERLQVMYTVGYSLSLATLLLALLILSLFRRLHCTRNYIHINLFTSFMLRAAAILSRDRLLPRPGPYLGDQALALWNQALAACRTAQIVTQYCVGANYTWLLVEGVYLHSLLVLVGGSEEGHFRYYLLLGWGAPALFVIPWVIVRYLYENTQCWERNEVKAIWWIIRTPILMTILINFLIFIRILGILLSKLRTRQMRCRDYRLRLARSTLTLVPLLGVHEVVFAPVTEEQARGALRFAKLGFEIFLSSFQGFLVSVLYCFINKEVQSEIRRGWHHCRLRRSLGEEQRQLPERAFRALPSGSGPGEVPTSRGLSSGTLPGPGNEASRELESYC
Method in brief: as §1

hGCGR = target: T2, hGCGR (Homo sapiens, UniProt P47871); assay: Functional cAMP formation (HTRF) in HEK-293 clonal cells expressing hGCGR, 0.1% bovine casein, without or with 1.0% human serum albumin
T2 construct: expressed in transfected cells
T2 sequence (P47871 26-477): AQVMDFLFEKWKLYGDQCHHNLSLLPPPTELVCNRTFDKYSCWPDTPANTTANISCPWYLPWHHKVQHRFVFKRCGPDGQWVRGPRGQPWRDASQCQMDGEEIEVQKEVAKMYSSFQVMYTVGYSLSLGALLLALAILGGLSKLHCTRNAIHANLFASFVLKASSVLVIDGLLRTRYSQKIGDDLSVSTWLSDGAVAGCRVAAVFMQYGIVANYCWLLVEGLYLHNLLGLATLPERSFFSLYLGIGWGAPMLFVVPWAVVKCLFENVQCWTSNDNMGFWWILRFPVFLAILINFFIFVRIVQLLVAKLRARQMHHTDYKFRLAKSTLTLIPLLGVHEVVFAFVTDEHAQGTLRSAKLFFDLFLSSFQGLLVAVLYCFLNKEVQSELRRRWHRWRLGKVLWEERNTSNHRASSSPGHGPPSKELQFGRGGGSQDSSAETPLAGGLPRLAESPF
Method in brief: as §1

[1] = hGLP-1R EC50, nM (SEM, n), cAMP, incubated at 37° C., 0.1% bovine casein (no human serum albumin)
[2] = hGCGR EC50, nM (SEM, n), cAMP, incubated at 37° C., 0.1% bovine casein (no human serum albumin), geometric mean
[3] = HEK293, cAMP, 37° C., 0.1% bovine casein and 1.0% human serum albumin, percent of maximal response to GLP-1(7-36)NH2, read-out: hGLP-1R Emax, % ± SEM
[4] = HEK293, cAMP, 37° C., 0.1% bovine casein, percent of maximal response to GLP-1(7-36)NH2, arithmetic mean, read-out: hGLP-1R Emax, % ± SEM
[5] = cAMP, 37° C., 0.1% bovine casein (no human serum albumin), read-out: hGLP-1R EC50, nM (SEM, n)
[6] = HEK293, cAMP, 37° C., 0.1% bovine casein and 1.0% human serum albumin, percent of maximal response to GIP(1-42)NH2, read-out: hGIPR Emax, % ± SEM
[7] = 37° C., 0.1% bovine casein (no human serum albumin), geometric mean, read-out: hGIPR EC50, nM (SEM, n)
[8] = 37° C., 0.1% bovine casein and 1.0% human serum albumin, geometric mean (SEM, n), read-out: hGIPR EC50, nM (SEM, n)
[9] = cAMP, 37° C., 0.1% bovine casein (no human serum albumin), geometric mean, read-out: hGCGR EC50, nM (SEM, n)
[10] = cAMP, 37° C., 0.1% bovine casein and 1.0% human serum albumin, geometric mean (SEM, n), read-out: hGCGR EC50, nM (SEM, n)

Sequence of hGLP-1R (P43220 24-463): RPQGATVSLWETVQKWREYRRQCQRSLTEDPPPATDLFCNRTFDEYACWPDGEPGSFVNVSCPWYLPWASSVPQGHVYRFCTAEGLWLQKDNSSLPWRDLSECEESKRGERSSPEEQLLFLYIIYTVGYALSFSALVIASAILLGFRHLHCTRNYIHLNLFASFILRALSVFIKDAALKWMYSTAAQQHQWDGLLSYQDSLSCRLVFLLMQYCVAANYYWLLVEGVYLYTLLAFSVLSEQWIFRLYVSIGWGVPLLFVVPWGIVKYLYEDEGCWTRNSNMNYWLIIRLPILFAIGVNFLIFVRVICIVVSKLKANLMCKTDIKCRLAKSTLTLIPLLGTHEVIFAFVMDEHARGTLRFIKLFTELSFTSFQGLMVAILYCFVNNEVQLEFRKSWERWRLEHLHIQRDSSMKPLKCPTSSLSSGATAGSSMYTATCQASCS

| Compound | EC50 (hGLP-1R; hGLP-1R EC50, nM (SEM, n), 0.1% bovine casein and 1.0% human serum albumin, 37° C.) | EC50 (hGLP-1R; [1]) | Emax (hGIPR; HEK293, read-out: hGIPR Emax, % ± SEM, 0.1% bovine casein and 1.0% human serum albumin, 37° C., percent of maximal response to GIP(1-42)NH2) | EC50 (hGIPR; hGIPR EC50, nM (SEM, n), incubated at 37° C., 0.1% bovine casein (no human serum albumin), geometric mean) | EC50 (hGCGR; hGCGR EC50, nM (SEM, n), 0.1% bovine casein and 1.0% human serum albumin, 37° C., geometric mean) | EC50 (hGCGR; [2]) | Emax (hGLP-1R; [3]) | Emax (hGLP-1R; [4]) | EC50 (hGLP-1R; [5]) | Emax (hGIPR; [6]) | Emax (hGIPR; HEK293, cAMP, 37° C., 0.1% bovine casein, percent of maximal response to GIP(1-42)NH2, arithmetic mean, read-out: hGIPR Emax, % ± SEM) | EC50 (hGIPR; [7]) | EC50 (hGIPR; [8]) | EC50 (hGCGR; [9]) | EC50 (hGCGR; [10]) | Emax (hGLP-1R; HEK293, read-out: hGLP-1R Emax, % ± SEM, percent of maximal response to GLP-1(7-36)NH2, 37° C., 0.1% bovine casein, arithmetic mean) | Emax (hGIPR; HEK293, read-out: hGIPR Emax, % ± SEM, percent of maximal response to GIP(1-42)NH2, 37° C., 0.1% bovine casein, arithmetic mean) |
| --- | --- | --- | --- | --- | --- | --- | --- | --- | --- | --- | --- | --- | --- | --- | --- | --- | --- |
| CC[C@H](C)[C@H](NC(=O)[C@H](CC(C)C)NC(=O)[C@](C)(Cc1ccc(O)cc1)NC(=O)[C@@H](CCC(=O)O)NC(=O)[C@@H](NC(=O)[C@H](Cc1ccccc1)NC(=O)[C@H](CCC(=O)O)NC(=O)C(C)(C)NC(=O)[C@H](CCC(N)=O)NC(=O)[C@H](C)NC(=O)[C@H](CCCCNC(=O)COCCOCCNC(=O)COCCOCCNC(=O)CC[C@H](NC(=O)CCCCCCCCCOc1ccc(C(=O)O)cc1)C(=O)O)NC(=O)[C@H](CCCN)NC(=O)[C@H](CC(=O)O)NC(=O)[C@H](CC(C)C)NC(=O)[C@](C)(CC(C)C)NC(=O)[C@@H](NC(=O)C(C)(C)NC(=O)[C@H](Cc1ccc(O)cc1)NC(=O)[C@H](CC(=O)O)NC(=O)[C@H](CO)NC(=O)[C@@H](NC(=O)[C@](C)(Cc1ccccc1F)NC(=O)[C@@H](NC(=O)CNC(=O)[C@H](CCC(=O)O)NC(=O)C(C)(C)NC(=O)[C@@H](N)Cc1ccc(O)cc1)[C@@H](C)O)[C@@H](C)O)[C@@H](C)CC)[C@@H](C)CC)C(=O)N[C@@H](CCC(=O)O)C(=O)NCC(=O)NCC(=O)N1CCC[C@H]1C(=O)N[C@@H](CO)C(=O)N[C@@H](CO)C(=O)NCC(=O)N[C@@H](C)C(=O)N1CCC[C@H]1C(=O)N1CCC[C@H]1C(=O)N1CCC[C@H]1C(=O)N[C@@H](CO)C(=O)N[C@@H](CCCCNC(=O)COCCOCCNC(=O)COCCOCCNC(=O)CC[C@H](NC(=O)CCCCCCCCCOc1ccc(C(=O)O)cc1)C(=O)O)C(N)=O [Example 238] | 27.2 nM | 1.03 nM | 90.5% | 0.0214 nM | > 9950 nM | > 9950 nM | – | – | – | – | – | – | – | – | – | – | – |
| CC[C@H](C)[C@H](NC(=O)[C@H](CC(C)C)NC(=O)[C@](C)(Cc1ccc(O)cc1)NC(=O)[C@@H](CCC(=O)O)NC(=O)[C@@H](NC(=O)[C@H](Cc1ccccc1)NC(=O)[C@H](CCCCNC(=O)COCCOCCNC(=O)COCCOCCNC(=O)CCCCCCCCCCCCC(=O)O)NC(=O)C(C)(C)NC(=O)[C@H](CCC(N)=O)NC(=O)[C@H](C)NC(=O)[C@H](CCCCNC(=O)COCCOCCNC(=O)COCCOCCNC(=O)CCCCCCCCCCCCC(=O)O)NC(=O)[C@H](CCCN)NC(=O)[C@H](CC(=O)O)NC(=O)[C@H](CC(C)C)NC(=O)[C@](C)(CC(C)C)NC(=O)[C@@H](NC(=O)C(C)(C)NC(=O)[C@@H](NC(=O)[C@H](CC(=O)O)NC(=O)[C@H](CO)NC(=O)[C@@H](NC(=O)[C@](C)(Cc1ccccc1F)NC(=O)[C@@H](NC(=O)CNC(=O)[C@H](CCC(=O)O)NC(=O)C(C)(C)NC(=O)[C@@H](N)Cc1ccc(O)cc1)[C@@H](C)O)[C@@H](C)O)C(C)C)[C@@H](C)CC)[C@@H](C)CC)C(=O)N[C@@H](CCC(=O)O)C(=O)NCC(=O)NCC(=O)N1CCC[C@H]1C(=O)N[C@@H](CO)C(=O)N[C@@H](CO)C(=O)NCC(=O)N[C@@H](C)C(=O)N1CCC[C@H]1C(=O)N1CCC[C@H]1C(=O)N1CCC[C@H]1C(=O)N[C@@H](CO)C(N)=O [Example 386] | – | – | – | – | – | – | 96.8% | 98.9% | 0.194 nM | 81.3% | 95.7% | 0.0174 nM | 2.08 nM | > 9950 nM | > 9950 nM | – | – |
| CC[C@H](C)[C@H](NC(=O)[C@H](CC(C)C)NC(=O)[C@](C)(Cc1ccc(O)cc1)NC(=O)[C@H](CCCCNC(=O)COCCOCCNC(=O)COCCOCCNC(=O)CC[C@H](NC(=O)CCCCCCCCCCCCC(=O)O)C(=O)O)NC(=O)[C@@H](NC(=O)[C@H](Cc1ccccc1)NC(=O)[C@H](CCC(=O)O)NC(=O)C(C)(C)NC(=O)[C@H](CCC(N)=O)NC(=O)[C@H](C)NC(=O)[C@H](CCCCNC(=O)COCCOCCNC(=O)COCCOCCNC(=O)CC[C@H](NC(=O)CCCCCCCCCCCCC(=O)O)C(=O)O)NC(=O)[C@H](CCCN)NC(=O)[C@H](CC(=O)O)NC(=O)[C@H](CC(C)C)NC(=O)[C@](C)(CC(C)C)NC(=O)[C@@H](NC(=O)[C@H](CO)NC(=O)[C@@H](NC(=O)[C@H](CC(=O)O)NC(=O)[C@H](CO)NC(=O)[C@@H](NC(=O)[C@](C)(Cc1ccccc1F)NC(=O)[C@@H](NC(=O)CNC(=O)[C@H](CCC(=O)O)NC(=O)C(C)(C)NC(=O)[C@@H](N)Cc1ccc(O)cc1)[C@@H](C)O)[C@@H](C)O)C(C)C)[C@@H](C)CC)[C@@H](C)CC)C(=O)N[C@@H](CCC(=O)O)C(=O)NCC(=O)NCC(=O)N1CCC[C@H]1C(=O)N[C@@H](CO)C(=O)N[C@@H](CO)C(=O)NCC(=O)N[C@@H](C)C(=O)N1CCC[C@H]1C(=O)N1CCC[C@H]1C(=O)N1CCC[C@H]1C(=O)N[C@@H](CO)C(N)=O [Example 114] | – | 0.176 nM | – | – | – | > 9950 nM | – | – | – | – | – | – | – | – | – | 91.7% | 93.8% |
| CC[C@H](C)[C@H](NC(=O)[C@H](CC(C)C)NC(=O)[C@](C)(Cc1ccc(O)cc1)NC(=O)[C@H](CCCCNC(=O)CCOCCOCCOCCOCCOCCNC(=O)CC[C@H](NC(=O)CCCCCCCCCCCCC(=O)O)C(=O)O)NC(=O)[C@@H](NC(=O)[C@H](Cc1ccccc1)NC(=O)[C@H](CCCN)NC(=O)C(C)(C)NC(=O)[C@H](CCC(N)=O)NC(=O)[C@H](C)NC(=O)[C@H](CCC(N)=O)NC(=O)[C@H](CCCN)NC(=O)[C@H](CC(=O)O)NC(=O)[C@H](CC(C)C)NC(=O)[C@](C)(CC(C)C)NC(=O)[C@@H](NC(=O)C(C)(C)NC(=O)[C@H](Cc1ccncc1)NC(=O)[C@H](CC(=O)O)NC(=O)[C@H](CO)NC(=O)[C@@H](NC(=O)[C@](C)(Cc1ccccc1F)NC(=O)[C@@H](NC(=O)CNC(=O)[C@H](CCC(=O)O)NC(=O)C(C)(C)NC(=O)[C@@H](N)Cc1ccc(O)cc1)[C@@H](C)O)[C@@H](C)O)[C@@H](C)CC)[C@@H](C)CC)C(=O)N[C@@H](CCCCNC(=O)CCOCCOCCOCCOCCOCCNC(=O)CC[C@H](NC(=O)CCCCCCCCCCCCC(=O)O)C(=O)O)C(=O)NCC(=O)NCC(=O)N1CCC[C@H]1C(=O)N[C@@H](CO)C(=O)N[C@@H](CO)C(=O)NCC(=O)N[C@@H](C)C(=O)N1CCC[C@H]1C(=O)N1CCC[C@H]1C(=O)N1CCC[C@H]1C(=O)N[C@@H](CO)C(N)=O [Example 467] | – | – | – | – | – | – | 97.9% | 110% | 0.131 nM | 88.4% | – | 0.0113 nM | 0.35 nM | > 10100 nM | > 10100 nM | – | – |
